Source: US12544395B2, “Combination compositions comprising a beta-lactamase inhibitor and uses thereof” (priority 2018, dated 2026)
In brackets after ≈: the same amount, converted by molar mass. Several values for one entry are separate records, joined by “and”; a condition that tells them apart may be missing. Equal values may be shown once.

How the values were obtained:
[1] = system: AmpC/CMY-expressing Enterobacteriaceae (n = 44); assay: Broth microdilution MIC, ceftibuten/Compound 2 vs IV comparators; assay type: cell-based; settings: for Number of strains at MIC value 0.5 mg/L / Number of strains at MIC value 1 mg/L / Number of strains at MIC value 2 mg/L / Number of strains at MIC value 4 mg/L / Number of strains at MIC value 8 mg/L / Number of strains at MIC value 16 mg/L / Number of strains at MIC value […] / Number of strains at MIC value ≤0.06 mg/L / Number of strains at MIC value ≥32 mg/L: AmpC/CMY-expressing (n = 44); for MIC50 / MIC90: iv
[2] = system: KPC-expressing Enterobacteriaceae (n = 77); assay: organism not typed; assay type: cell-based; settings: for Number of strains at MIC value 0.5 mg/L / Number of strains at MIC value 1 mg/L / Number of strains at MIC value 2 mg/L / Number of strains at MIC value 4 mg/L / Number of strains at MIC value 8 mg/L / Number of strains at MIC value 16 mg/L / Number of strains at MIC value […] / Number of strains at MIC value ≤0.06 mg/L / Number of strains at MIC value ≥32 mg/L: KPC-expressing (n = 77); for MIC50 / MIC90: iv
[3] = system: ESBL-expressing Enterobacteriaceae (n = 33); assay: Broth microdilution MIC, ceftibuten/Compound 2 vs IV comparators; assay type: cell-based; settings: for Number of strains at MIC value 0.5 mg/L / Number of strains at MIC value 1 mg/L / Number of strains at MIC value 2 mg/L / Number of strains at MIC value 4 mg/L / Number of strains at MIC value 8 mg/L / Number of strains at MIC value 16 mg/L / Number of strains at MIC value […] / Number of strains at MIC value ≤0.06 mg/L / Number of strains at MIC value ≥32 mg/L: ESBL-expressing (n = 33); for MIC50 / MIC90: iv
[4] = system: OXA-48-expressing Enterobacteriaceae (n = 39); assay: as above

## C[C@@H](O)[C@H]1C(=O)N2C(C(=O)O)=C(S[C@@H]3CN[C@H](C(=O)N(C)C)C3)[C@H](C)[C@H]12 [Meropenem]
[1]
  Number of strains at MIC value 0.5 mg/L: 2
  Number of strains at MIC value 1 mg/L: 1
  Number of strains at MIC value 2 mg/L: 0
  Number of strains at MIC value 4 mg/L: 3
  Number of strains at MIC value 8 mg/L: 0
  Number of strains at MIC value 16 mg/L: 0
  Number of strains at MIC value […]: 2
  Number of strains at MIC value ≤0.06 mg/L: 34
  Number of strains at MIC value ≥32 mg/L: 0
  MIC50: ≤ 0.06 µg/mL
  MIC90: 0.5 µg/mL (≈ 1.3 µM)
[2]
  Number of strains at MIC value 0.5 mg/L: 1
  Number of strains at MIC value 1 mg/L: 0
  Number of strains at MIC value 2 mg/L: 3
  Number of strains at MIC value 4 mg/L: 4
  Number of strains at MIC value 8 mg/L: 11
  Number of strains at MIC value 16 mg/L: 13
  Number of strains at MIC value […]: 0
  Number of strains at MIC value ≤0.06 mg/L: 1
  Number of strains at MIC value ≥32 mg/L: 44
  MIC50: ≥ 32 µg/mL
  MIC90: ≥ 32 µg/mL
[3]
  Number of strains at MIC value 0.5 mg/L: 0
  Number of strains at MIC value 1 mg/L: 1
  Number of strains at MIC value 2 mg/L: 1
  Number of strains at MIC value 4 mg/L: 0
  Number of strains at MIC value 8 mg/L: 1
  Number of strains at MIC value 16 mg/L: 0
  Number of strains at MIC value […]: 1 and 0
  Number of strains at MIC value ≤0.06 mg/L: 29
  Number of strains at MIC value ≥32 mg/L: 0
  MIC50: ≤ 0.06 µg/mL
  MIC90: 0.125 µg/mL (≈ 0.326 µM)
[4]
  MIC50: 2 µg/mL (≈ 5.22 µM)
  MIC90: 8 µg/mL (≈ 20.9 µM)

## CN(C)c1cc(NC(=O)CNC(C)(C)C)c(O)c2c1C[C@H]1C[C@H]3[C@H](N(C)C)C(O)=C(C(N)=O)C(=O)[C@@]3(O)C(O)=C1C2=O [Tigecycline]
[1]
  Number of strains at MIC value 0.5 mg/L: 8
  Number of strains at MIC value 1 mg/L: 10
  Number of strains at MIC value 2 mg/L: 10
  Number of strains at MIC value 4 mg/L: 4
  Number of strains at MIC value 8 mg/L: 2
  Number of strains at MIC value 16 mg/L: 0
  Number of strains at MIC value […]: 4 and 6
  Number of strains at MIC value ≤0.06 mg/L: 0
  Number of strains at MIC value ≥32 mg/L: 0
  MIC50: 1 µg/mL (≈ 1.71 µM)
  MIC90: 4 µg/mL (≈ 6.83 µM)
[2]
  Number of strains at MIC value 0.5 mg/L: 19
  Number of strains at MIC value 1 mg/L: 34
  Number of strains at MIC value 2 mg/L: 15
  Number of strains at MIC value 4 mg/L: 5
  Number of strains at MIC value 8 mg/L: 0
  Number of strains at MIC value 16 mg/L: 0
  Number of strains at MIC value […]: 0 and 4
  Number of strains at MIC value ≤0.06 mg/L: 0
  Number of strains at MIC value ≥32 mg/L: 0
  MIC50: 1 µg/mL (≈ 1.71 µM)
  MIC90: 2 µg/mL (≈ 3.41 µM)
[3]
  Number of strains at MIC value 0.5 mg/L: 11
  Number of strains at MIC value 1 mg/L: 3
  Number of strains at MIC value 2 mg/L: 3
  Number of strains at MIC value 4 mg/L: 2
  Number of strains at MIC value 8 mg/L: 0
  Number of strains at MIC value 16 mg/L: 0
  Number of strains at MIC value […]: 4 and 10
  Number of strains at MIC value ≤0.06 mg/L: 0
  Number of strains at MIC value ≥32 mg/L: 0
  MIC50: 0.5 µg/mL (≈ 0.854 µM)
  MIC90: 2 µg/mL (≈ 3.41 µM)
[4]
  MIC50: 0.5 µg/mL (≈ 0.854 µM)
  MIC90: 2 µg/mL (≈ 3.41 µM)
